Earlier results, collected in patent US8198478B2 (Ajinomoto Co., Inc., priority 2007, dated 2012).

Details: literature value (Kagaku Binran, 1993)

With `N[C@@H](CCC(=O)O)C(=O)O` [glutamic acid] as the compound, how does the “hydrogen ion dissociation constant pk1” value read?
The value was 2.19.

What about the “hydrogen ion dissociation constant pk2” value of the same compound?
The value was 4.25.

What about the “hydrogen ion dissociation constant pk3” value of the same compound?
Its value is 9.67.
